# Measurements reported in ChEMBL document CHEMBL6096630, “Enhancing therapeutic efficacy in homologous recombination-proficient pancreatic cancer via the combination of PARP1-PROTAC and a BRD4 inhibitor” (Bioorg Med Chem, 2024).
# Active and inactive are the calls of the source. No cut-off for these calls is given here.
# How the values were obtained:
# PANC-1 [1] = assay: Induction of cell cycle arrest in human PANC-1 cells assessed as accumulation at G2/M phase at 1 uM incubated for 24 hrs in presence of OL by PI staining based flow cytometry; type: functional
# PANC-1 [2] = assay: Induction of apoptosis in human PANC-1 cells assessed as late apoptotic cells at 0.25 uM incubated for 48 hrs by Annexin V-FITC/PI staining based flow cytometry (reference value: 3.87 %); type: functional
# PANC-1 [3] = assay: Induction of DNA damage in human PANC-1 cells assessed as increase in gamma-H2AX level at 1 uM in presence of OL by Western blot analysis; type: functional, cell-based
# [4] = Toxicity in BALB/c mouse xenografted with human PANC-1 cells assessed as animal mortality at 20 mg/kg, ip for 4 weeks administered for 5 days consecutively and 2 days without treatment on every week; type: organism-based; conditions: in vivo, 672 h
# PANC-1 [5] = assay: Induction of apoptosis in human PANC-1 cells assessed as late apoptotic cells at 1 uM incubated for 48 hrs by Annexin V-FITC/PI staining based flow cytometry (reference value: 3.87 %); type: functional
# [6] = Toxicity in BALB/c mouse xenografted with human PANC-1 cells assessed as pathological changes in lung at 20 mg/kg, ip for 4 weeks administered for 5 days consecutively and 2 days without treatment on every week in presence of OL by H and E staining based analysis; type: organism-based; conditions: in vivo, 672 h
# [7] = Toxicity in BALB/c mouse xenografted with human PANC-1 cells assessed as pathological changes in kidney at 20 mg/kg, ip for 4 weeks administered for 5 days consecutively and 2 days without treatment on every week by H and E staining based analysis; type: organism-based; conditions: in vivo, 672 h
# PANC-1 [8] = assay: Induction of cell cycle arrest in human PANC-1 cells assessed as accumulation at G1/S phase at 0.12 to 2 uM incubated for 24 hrs by PI staining based flow cytometry; type: functional; conditions: dose 0.12-2 µM
# PANC-1 [9] = assay: Induction of apoptosis in human PANC-1 cells assessed as late apoptotic cells at 0.12 uM incubated for 48 hrs by Annexin V-FITC/PI staining based flow cytometry (reference value: 3.87 %); type: functional
# [10] = Toxicity in BALB/c mouse xenografted with human PANC-1 cells assessed as pathological changes in kidney at 20 mg/kg, ip for 4 weeks administered for 5 days consecutively and 2 days without treatment on every week in presence of OL by H and E staining based analysis; type: organism-based; conditions: in vivo, 672 h
# PANC-1 [11] = assay: Induction of cell cycle arrest in human PANC-1 cells assessed as accumulation at G2 phase at 0.12 uM incubated for 24 hrs by PI staining based flow cytometry (reference value: 9.36 %); type: functional
# PANC-1 [12] = assay: Induction of apoptosis in human PANC-1 cells assessed as necrotic cells at 1 uM incubated for 48 hrs by Annexin V-FITC/PI staining based flow cytometry (reference value: 3.09 %); type: functional
# PANC-1 [13] = assay: Induction of apoptosis in human PANC-1 cells assessed as early apoptotic cells at 1 uM incubated for 48 hrs in presence of OL by Annexin V-FITC/PI staining based flow cytometry (reference value: 1.41 %); type: functional
# [14] = Toxicity in BALB/c mouse xenografted with human PANC-1 cells assessed as animal morbidity at 20 mg/kg, ip for 4 weeks administered for 5 days consecutively and 2 days without treatment on every week; type: organism-based; conditions: in vivo, 672 h
# PANC-1 [15] = assay: Induction of cell cycle arrest in human PANC-1 cells assessed as accumulation at G2 phase at 0.5 uM incubated for 24 hrs by PI staining based flow cytometry (reference value: 9.36 %); type: functional
# PANC-1 [16] = assay: Induction of apoptosis in human PANC-1 cells assessed as early apoptotic cells at 0.5 uM incubated for 48 hrs by Annexin V-FITC/PI staining based flow cytometry (reference value: 1.41 %); type: functional
# PANC-1 [17] = assay: Induction of DNA damage in human PANC-1 cells assessed as increase in gamma-H2AX level at 2 uM in presence of JQ1 by immunofluorescence based analysis; type: functional, cell-based
# [18] = molecular target: Protein cereblon/Poly [ADP-ribose] polymerase 1 (Homo sapiens, UniProt P09874+Q96SW2); assay: PROTAC activity at CRBN/PARP1 in human BXPC-3 cells assessed as induction of PARP1 degradation at 2 uM incubated for 24 hrs by immunofluorescence based analysis; type: cell-based
# PANC-1 [19] = assay: Induction of apoptosis in human PANC-1 cells assessed as decrease in Bcl-2 level at 2 uM incubated for 48 hrs in presence of JQ1 by Western blot analysis; type: functional, cell-based
# PANC-1 [20] = assay: Induction of apoptosis in human PANC-1 cells assessed as increase in cleaved caspase-3 level at 2 uM incubated for 48 hrs in presence of JQ1 by Western blot analysis; type: functional, cell-based
# Chain of Protein cereblon/Poly [ADP-ribose] polymerase 1 (P09874 2-1014 limits assumed): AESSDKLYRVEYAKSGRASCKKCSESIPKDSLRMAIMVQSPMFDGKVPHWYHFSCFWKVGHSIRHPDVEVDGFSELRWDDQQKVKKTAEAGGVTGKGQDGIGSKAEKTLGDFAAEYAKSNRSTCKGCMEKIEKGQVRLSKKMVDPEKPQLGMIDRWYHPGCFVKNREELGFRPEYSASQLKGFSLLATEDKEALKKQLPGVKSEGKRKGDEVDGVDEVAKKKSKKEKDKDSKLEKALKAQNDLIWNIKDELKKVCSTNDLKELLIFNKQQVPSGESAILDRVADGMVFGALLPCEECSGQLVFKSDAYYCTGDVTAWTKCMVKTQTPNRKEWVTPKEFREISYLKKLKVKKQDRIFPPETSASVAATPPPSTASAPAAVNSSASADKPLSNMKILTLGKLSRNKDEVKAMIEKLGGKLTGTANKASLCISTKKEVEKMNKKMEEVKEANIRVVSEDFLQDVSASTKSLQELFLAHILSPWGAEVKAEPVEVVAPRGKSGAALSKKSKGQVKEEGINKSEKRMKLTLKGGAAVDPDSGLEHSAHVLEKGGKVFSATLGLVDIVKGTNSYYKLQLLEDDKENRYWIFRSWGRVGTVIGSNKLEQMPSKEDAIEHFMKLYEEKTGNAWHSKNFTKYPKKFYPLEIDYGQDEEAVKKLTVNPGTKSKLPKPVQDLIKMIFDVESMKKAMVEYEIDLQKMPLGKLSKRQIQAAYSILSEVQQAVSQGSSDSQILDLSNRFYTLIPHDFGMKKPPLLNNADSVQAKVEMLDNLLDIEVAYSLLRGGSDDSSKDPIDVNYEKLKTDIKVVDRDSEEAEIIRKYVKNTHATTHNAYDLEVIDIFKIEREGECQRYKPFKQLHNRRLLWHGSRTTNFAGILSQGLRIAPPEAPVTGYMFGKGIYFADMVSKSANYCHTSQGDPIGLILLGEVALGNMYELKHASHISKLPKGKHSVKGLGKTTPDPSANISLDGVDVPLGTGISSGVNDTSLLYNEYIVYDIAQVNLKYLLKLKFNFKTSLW
# Chain of Protein cereblon/Poly [ADP-ribose] polymerase 1 (Q96SW2 whole entry partner): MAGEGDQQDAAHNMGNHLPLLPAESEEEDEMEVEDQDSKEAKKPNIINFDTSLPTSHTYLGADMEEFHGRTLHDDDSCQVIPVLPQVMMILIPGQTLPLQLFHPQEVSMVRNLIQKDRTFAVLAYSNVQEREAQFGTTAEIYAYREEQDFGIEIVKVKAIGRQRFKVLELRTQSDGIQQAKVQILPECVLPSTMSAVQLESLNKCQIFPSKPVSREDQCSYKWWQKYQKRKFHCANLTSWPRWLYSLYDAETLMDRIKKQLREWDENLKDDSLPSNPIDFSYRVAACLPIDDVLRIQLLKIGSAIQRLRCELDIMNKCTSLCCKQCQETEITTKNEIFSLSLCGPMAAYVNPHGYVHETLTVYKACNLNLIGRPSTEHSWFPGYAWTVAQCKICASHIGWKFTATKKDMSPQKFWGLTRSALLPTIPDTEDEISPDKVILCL
Structure (SMILES),Activity (PANC-1 [1]),Activity (PANC-1 [2]) [%],Activity (PANC-1 [3]),Activity [4],Activity (PANC-1 [5]) [%],Activity [6],Activity [7],Activity (PANC-1 [8]),Activity (PANC-1 [9]) [%],Activity [10],Activity (PANC-1 [11]) [%],Activity (PANC-1 [12]) [%],Activity (PANC-1 [13]) [%],Activity [14],Activity (PANC-1 [15]) [%],Activity (PANC-1 [16]) [%],Activity (PANC-1 [17]),Activity [18],Activity (PANC-1 [19]),Activity (PANC-1 [20])
Cc1sc2c(c1C)C(c1ccc(Cl)cc1)=N[C@@H](CC(=O)OC(C)(C)C)c1nnc(C)n1-2,Active; Only A Slight Increase Observed,4.07,Active,Non-toxic,9.46,Non-toxic,Non-toxic,Active,3.99,Non-toxic,13.25,4.54,5.44,Non-toxic,10.56,3.52,–,–,–,–
O=C1CCC(N2C(=O)c3cccc(NC(=O)CNCCCCCCCCCCC(=O)N4CCN(C(=O)c5cc(Cc6n[nH]c(=O)c7ccccc67)ccc5F)CC4)c3C2=O)C(=O)N1 (stereo not given),–,–,–,–,–,–,–,–,–,–,–,–,–,–,–,–,Active,Active,Active,Active
